From patent US20110306606A1, “NOVEL 2,6-SUBSTITUTED-3-NITROPYRIDINE DERIVATIVE, METHOD FOR PREPARING SAME, AND PHARMACEUTICAL COMPOSITION INCLUDING SAME” (priority 2008, published 2011)

Test system: Osteoblasts (Calvarial cells)
Assay: Cytotoxicity test (MTT)
Settings: 1 μM compound, 72 hours, in comparison with vehicle control

| SMILES | Cell viability (%) Calvarial cell [%] |
| --- | --- |
| Cc1ccc(Nc2nc(N(C)CC3OCCO3)ccc2[N+](=O)[O-])cc1 [Compound 4, 2-(4-methylphenylamino)-6-[(N-[1,3]-dioxolan-2-ylmethyl)methylamino]-3-nitropyridine] | 104 |
| Cc1ccc(Nc2nc(NCc3ccncc3)ccc2[N+](=O)[O-])cc1 [Compound 8] | 92 |
| COc1ccc(Nc2nc(N(C)CCO)ccc2[N+](=O)[O-])cc1 [Compound 24, 2-(4-methoxyphenylamino)-6-[(N-methyl-2-hydroxy)ethylamino]-3-nitropyridine] | 99 |
| CN(CC1OCCO1)c1ccc([N+](=O)[O-])c(Nc2ccc(C(C)(C)C)cc2)n1 [Compound 33, 2-[4-(t-butyl)phenylamino]-6-[(N-[1,3]-dioxolan-2-ylmethyl)methylamino]-3-nitropyridine] | 93 |
| CC1=NCCN1c1ccc([N+](=O)[O-])c(Nc2ccc(C#N)cc2)n1 [Compound 48, 2-(4-cyanophenylamino)-6-[(2-methyl-4,5-dihydro)imidazol-1-yl]-3-nitropyridine] | 103 |
| Nc1ccc(Nc2nc(NCCN3CCOCC3)ccc2[N+](=O)[O-])cc1 [Compound 68, 2-[4-(amino)phenylamino]-6-[2-(morpholin-1-yl)ethylamino]-3-nitropyridine] | 103 |
| Nc1ccc(Nc2nc(NCCCN3CCOCC3)ccc2[N+](=O)[O-])cc1 [Compound 69, 2-[4-(amino)phenylamino]-6-[3-(morpholin-1-yl)propylamino]-3-nitropyridine] | 110 |
| Nc1cccc(Nc2nc(NCCN3CCOCC3)ccc2[N+](=O)[O-])c1 [Compound 83, 2-[3-(amino)phenylamino]-6-[2-(morpholin-1-yl)ethylamino]-3-nitropyridine] | 99 |
| Nc1cccc(Nc2nc(NCCCN3CCOCC3)ccc2[N+](=O)[O-])c1 [Compound 84, 2-[3-(amino)phenylamino]-6-[3-(morpholin-1-yl)propylamino]-3-nitropyridine] | 108 |
| CN(CC1OCCO1)c1ccc([N+](=O)[O-])c(Nc2ccc(N3CCOCC3)cc2)n1 [Compound 111, 2-(4-morpholinophenylamino)-6-[(N-[1,3]-dioxolan-2-ylmethyl)methylamino]-3-nitropyridine] | 95 |
| CN(CC1OCCO1)c1ccc([N+](=O)[O-])c(Nc2ccc(F)c(F)c2)n1 [Compound 127, 2-[(3,4-difluoro)phenylamino]-6-[(N-[1,3]-dioxolan-2-ylmethyl)-methylamino]-3-nitropyridine] | 99 |
| CCN(CCO)c1ccc([N+](=O)[O-])c(Nc2ccc(-c3csc(C4CCCCC4)n3)cc2)n1 [Compound 156, 2-[4-(2-cyclohexylthiazol-4-yl)phenylamino]-6-[(N-ethyl-2-hydroxyethyl)amino]-3-nitropyridine] | 108 |
| CN1CCN(c2ccc([N+](=O)[O-])c(Nc3ccc(-c4csc(C5CCCCC5)n4)cc3)n2)CC1 [Compound 159] | 100 |
| CCN(CC)c1ccc(Nc2nc(NC)ccc2[N+](=O)[O-])cc1F [Compound 175, 2-[(3-fluoro-4-diethylamino)phenylamino]-6-(methylamino)-3-nitropyridine] | 104 |
| CCN(CC)c1ccc(Nc2nc(NC(C)C)ccc2[N+](=O)[O-])cc1F [Compound 176, 2-[(3-fluoro-4-diethylamino)phenylamino]-6-(isopropylamino)-3-nitropyridine] | 109 |
| CCN(CC)c1ccc(Nc2nc(NC(C)(C)C)ccc2[N+](=O)[O-])cc1F [Compound 178, 2-[(3-fluoro-4-diethylamino)phenylamino]-6-(t-butylamino)-3-nitropyridine] | 109 |
| CCN(CC)c1ccc(Nc2nc(N3CCC(O)CC3)ccc2[N+](=O)[O-])cc1F [Compound 179, 2-[(3-fluoro-4-diethylamino)phenylamino]-6-(4-hydroxypiperidino)-3-nitropyridine] | 104 |
| CCN(CC)c1ccc(Nc2nc(-n3ccnc3C(C)C)ccc2[N+](=O)[O-])cc1F [Compound 180, 2-[(3-fluoro-4-diethylamino)phenylamino]-6-[(2-isopropyl)imidazol-1-yl]-3-nitropyridine] | 100 |
| CCN(CC)c1ccc(Nc2nc(N3CCN=C3C)ccc2[N+](=O)[O-])cc1F [Compound 181, 2-[(3-fluoro-4-diethylamino)phenylamino]-6-[(2-methyl-4,5-dihydro)imidazol-1-yl]-3-nitropyridine] | 106 |
| CCN(CC)c1ccc(Nc2nc(N3CCNCC3)ccc2[N+](=O)[O-])cc1F [Compound 182, 2-[(3-fluoro-4-diethylamino)phenylamino]-6-(piperazin-1-yl)-3-nitropyridine] | 101 |

| SMILES | Cell viability (%) Calvarial cell [%] |
| --- | --- |
| CCN(CC)c1ccc(Nc2nc(N3CCN(C)CC3)ccc2[N+](=O)[O-])cc1F [Compound 183, 2-[(3-fluoro-4-diethylamino)phenylamino]-6-(4-methylpiperazin-1-yl)-3-nitropyridine] | 113 |
| CCN(CC)c1ccc(Nc2nc(N3CCOCC3)ccc2[N+](=O)[O-])cc1F [Compound 184, 2-[(3-fluoro-4-diethylamino)phenylamino]-6-morpholino-3-nitropyridine] | 110 |
| CCN(CC)c1ccc(Nc2nc(NCc3cccnc3)ccc2[N+](=O)[O-])cc1F [Compound 185, 2-[(3-fluoro-4-diethylamino)phenylamino]-6-[(3-pyridyl)methylamino]-3-nitropyridine] | 111 |
| CCN(CC)c1ccc(Nc2nc(NCc3ccncc3)ccc2[N+](=O)[O-])cc1F [Compound 186, 2-[(3-fluoro-4-diethylamino)phenylamino]-6-[(4-pyridyl)methylamino]-3-nitropyridine] | 113 |
| CCN(CC)c1ccc(Nc2nc(N3CCC(N)CC3)ccc2[N+](=O)[O-])cc1F [Compound 187, 2-[(3-fluoro-4-diethylamino)phenylamino]-6-(4-aminopiperidino)-3-nitropyridine] | 102 |
| CCN(CC)c1ccc(Nc2nc(NCCN3CCOCC3)ccc2[N+](=O)[O-])cc1F [Compound 188, 2-[(3-fluoro-4-diethylamino)phenylamino]-6-[2-(morpholin-1-yl)ethylamino]-3-nitropyridine] | 111 |
| CCN(CC)c1ccc(Nc2nc(NCCCn3ccnc3)ccc2[N+](=O)[O-])cc1F [Compound 189, 2-[(3-fluoro-4-diethylamino)phenylamino]-6-[(3-imidazol-1-yl)propylamino]-3-nitropyridine] | 129 |
| CCN(CC)c1ccc(Nc2nc(NCCCN3CCOCC3)ccc2[N+](=O)[O-])cc1F [Compound 190, 2-[(3-fluoro-4-diethylamino)phenylamino]-6-[(3-morpholin-1-yl)propylamino]-3-nitropyridine] | 123 |
| O=[N+]([O-])c1ccc(N2CCC(O)CC2)nc1Nc1ccc(N2CCOCC2)c(F)c1 [Compound 194, 2-[(3-fluoro-4-morpholino)phenylamino]-6-(4-hydroxypiperidino)-3-nitropyridine] | 107 |
| CC1=NCCN1c1ccc([N+](=O)[O-])c(Nc2ccc(N3CCOCC3)c(F)c2)n1 [Compound 195, 2-[(3-fluoro-4-morpholino)phenylamino]-6-[(2-methyl-4,5-dihydro)imidazol-1-yl]-3-nitropyridine] | 104 |
| CC(C)c1nccn1-c1ccc([N+](=O)[O-])c(Nc2ccc(N3CCOCC3)c(F)c2)n1 [Compound 196, 2-[(3-fluoro-4-morpholino)phenylamino]-6-[(2-isopropyl)imidazol-1-yl]-3-nitropyridine] | 100 |
| CN1CCN(c2ccc([N+](=O)[O-])c(Nc3ccc(N4CCOCC4)c(F)c3)n2)CC1 [Compound 200, 2-[(3-fluoro-4-morpholino)phenylamino]-6-(4-methylpiperazin-1-yl)-3-nitropyridine] | 107 |
| CC(C)Nc1ccc([N+](=O)[O-])c(Nc2ccc(N3CCSCC3)c(F)c2)n1 [Compound 204, 2-[(3-fluoro-4-thiomorpholino)phenylamino]-6-(isopropylamino)-3-nitropyridine] | 102 |
| CC1=NCCN1c1ccc([N+](=O)[O-])c(Nc2ccc(N3CCSCC3)c(F)c2)n1 [Compound 207, 2-[(3-fluoro-4-thiomorpholino)phenylamino]-6-[(2-methyl-4,5-dihydro)imidazol-1-yl]-3-nitropyridine] | 102 |
| CC(C)c1nccn1-c1ccc([N+](=O)[O-])c(Nc2ccc(N3CCSCC3)c(F)c2)n1 [Compound 208, 2-[(3-fluoro-4-thiomorpholino)phenylamino]-6-[(2-isopropyl)imidazol-1-yl]-3-nitropyridine] | 101 |
| CC(C)(C)Nc1ccc([N+](=O)[O-])c(Nc2ccc(N3CCSCC3)c(F)c2)n1 [Compound 211, 2-[(3-fluoro-4-thiomorpholino)phenylamino]-6-(t-butylamino)-3-nitropyridine] | 110 |
| O=[N+]([O-])c1ccc(N2CCC(O)CC2)nc1Nc1ccc(N2CCNCC2)c(F)c1 [Compound 218, 2-[(3-fluoro-4-piperazino)phenylamino]-6-(4-hydroxypiperidino)-3-nitropyridine] | 96 |
| CC(C)c1nccn1-c1ccc([N+](=O)[O-])c(Nc2ccc(N3CCNCC3)c(F)c2)n1 [Compound 219, 2-[(3-fluoro-4-piperazino)phenylamino]-6-[(2-isopropyl)imidazol-1-yl]-3-nitropyridine] | 89 |
| CC(C)(C)Nc1ccc([N+](=O)[O-])c(Nc2ccc(N3CCNCC3)c(F)c2)n1 [Compound 222, 2-[(3-fluoro-4-piperazino)phenylamino]-6-(t-butylamino)-3-nitropyridine] | 95 |
